We go through 33 compounds from PMC8286840, “Identifying SARS-CoV-2 antiviral compounds by screening for small molecule inhibitors of Nsp3 papain-like protease” (Biochemical Journal, 2021).

Where a name gives a salt, the structure may show the parent alone. Read-outs that look alike come from different tables or passages of the source. Where a SMILES comes first, the peptide text is derived from it. [ ]: non-standard residue; d: D form. Dolaproine = CO[C@@H]([C@@H]1CCCN1)[C@@H](C)C(=O)O; Dil = CC[C@H](C)[C@H](NC)[C@@H](CC(=O)O)OC; NMeV = CN[C@H](C(=O)O)C(C)C

Experiment [1] addresses T1, SARS-CoV-2 PLpro (nsp3 1564–1878) (Severe acute respiratory syndrome coronavirus 2, UniProt P0DTD1). Briefly: biochemical. Also noted: FRET-quenched peptide (Pro3) cleavage by PLpro, 10 min pre-incubation, slope over 20 min, normalised to no-compound control. Conditions: read-out: % of control remaining.
Experiment [2] deals with T1, SARS-CoV-2 PLpro (nsp3 1564–1878). Briefly: biochemical. Also noted: FRET-quenched peptide (Pro3) cleavage by PLpro, 10 min pre-incubation, slope over 20 min, normalised to no-compound control. Conditions: read-out: % of control remaining. This is another data set of the same source.

For the compound `C=CCn1c(=O)c2cnc(Nc3ccc(N4CCN(C)CC4)cc3)nc2n1-c1cccc(C(C)(C)O)n1` [MK-1775], the remaining activity at 1.25 µM in experiment [1] (Well no.=4947, low concentration screen) was found to be 102%. For the same compound, in experiment [2] (Well no.=4947, high concentration screen), the remaining activity at 3.75 µM is 99.7%.

For the compound `CCN1C[C@H](C)n2c(c(O)c3c(=O)n(Cc4ccc(F)c(Cl)c4)nc(C(=O)NC)c32)C1=O` [MK-2048], the remaining activity at 1.25 µM in experiment [1] (Well no.=4731, low concentration screen) is 107%. In experiment [2] (Well no.=4731, high concentration screen), the remaining activity at 3.75 µM was found to be 104%.

Take `NC1(c2ccc(-c3nc4ccn5c(=O)[nH]nc5c4cc3-c3ccccc3)cc2)CCC1` [MK-2206 2HCl]: the remaining activity at 1.25 µM in experiment [1] (Well no.=4625, low concentration screen) amounted to 102%. The remaining activity at 3.75 µM in experiment [2] (Well no.=4625, high concentration screen) is 102%.

`CN(C[C@@H]1COCCO1)S(=O)(=O)Nc1ccc2ccc3ncc(-c4cnn(C)c4)cc3c(=O)c2c1` [MK-2461]: the remaining activity at 1.25 µM in experiment [1] (Well no.=4737, low concentration screen) is 105%. In experiment [2] (Well no.=4737, high concentration screen), the remaining activity at 3.75 µM turned out to be 105%.

Take `Cc1sc(C)c(C(=O)NC2(c3ccc(C(=O)O)cc3)CC2)c1Cc1ccc(C(F)(F)F)cc1` [MK-2894]: the remaining activity at 1.25 µM in experiment [1] (Well no.=7101, low concentration screen) was 94.3%. The remaining activity at 3.75 µM in experiment [2] (Well no.=7101, high concentration screen) came to 90.7%.

With `O=C(CN1C(=O)C2(CCCC2)NC[C@H]1c1cc(F)cc(F)c1)Nc1ccc2c(c1)C[C@@]1(C2)C(=O)Nc2ncccc21` [MK-3207 (Hydrochloride)], the remaining activity at 1.25 µM in experiment [1] (Well no.=6950, low concentration screen) turned out to be 93.4%. Moreover, the remaining activity at 3.75 µM in experiment [2] (Well no.=6950, high concentration screen) was 93.6%.

With `COc1ccc(CNC(=O)c2cc(-c3cncc(C)c3)ncc2-c2nccs2)nc1OC` [MK-3697], the remaining activity at 1.25 µM in experiment [1] (Well no.=7867, low concentration screen) is 107%. Further, the remaining activity at 3.75 µM in experiment [2] (Well no.=7867, high concentration screen) amounted to 95.1%.

For the compound `O=C(O)[C@]1(Cc2cccc(Nc3nccs3)n2)CC[C@@H](Oc2cccc(Cl)c2F)CC1` [MK-5108 (VX-689)], in experiment [1] (Well no.=4733, low concentration screen), the remaining activity at 1.25 µM came to 101%. Moreover, the remaining activity at 3.75 µM in experiment [2] (Well no.=4733, high concentration screen) amounted to 97.2%.

For `CC(C)(Cc1nc(-c2ccc(O)cn2)no1)C(=O)NC1=C(C(=O)O)CCCC1` [MK-6892], the remaining activity at 1.25 µM in experiment [1] (Well no.=7953, low concentration screen) is 101%. The remaining activity at 3.75 µM in experiment [2] (Well no.=7953, high concentration screen) was found to be 100%.

`O=C(O)Cn1nnc(-c2cc(N3CCC(Oc4cc(F)ccc4Br)CC3)no2)n1` [MK-8245]: the remaining activity at 1.25 µM in experiment [1] (Well no.=4842, low concentration screen) was determined as 90.5%. In addition, the remaining activity at 3.75 µM in experiment [2] (Well no.=4842, high concentration screen) stood at 85.1%.

Take `O=C(N[C@H]1CN2CCC1CC2)c1c[nH]c2ccsc2c1=O` [MKC-733]: the remaining activity at 1.25 µM in experiment [1] (Well no.=5899, low concentration screen) turned out to be 105%. In addition, in experiment [2] (Well no.=5899, high concentration screen), the remaining activity at 3.75 µM was 108%.

As to `Cc1ccc(S(=O)(=O)n2c(N)nc3ccccc32)cc1` [ML130], the remaining activity at 1.25 µM in experiment [1] (Well no.=4829, low concentration screen) is 101%. In addition, in experiment [2] (Well no.=4829, high concentration screen), the remaining activity at 3.75 µM was 101%.

For `COc1ccc(CNCc2cccc3ccccc23)cc1` [ML133 HCl], the remaining activity at 1.25 µM in experiment [1] (Well no.=4793, low concentration screen) came to 97.9%. Moreover, the remaining activity at 3.75 µM in experiment [2] (Well no.=4793, high concentration screen) was 96.1%.

Take `Cc1cc(NC(=O)CS(=O)(=O)c2cn(Cc3cc(Br)ccc3F)c3ccccc23)no1` [ML169]: the remaining activity at 1.25 µM in experiment [1] (Well no.=5507, low concentration screen) stood at 99%. Also, the remaining activity at 3.75 µM in experiment [2] (Well no.=5507, high concentration screen) worked out at 97.5%.

As for `COC(=O)c1cnn(-c2ccc(F)cc2F)c1/C=N/NC(=S)NC(C)(C)C` [ML194], the remaining activity at 1.25 µM in experiment [1] (Well no.=5766, low concentration screen) was determined as 99.4%. Further, the remaining activity at 3.75 µM in experiment [2] (Well no.=5766, high concentration screen) was determined as 95.8%.

Regarding `CCN1CCN(C(c2ccc(C(F)(F)F)cc2)c2ccc3cccnc3c2O)CC1` (stereo not drawn) [ML311], the remaining activity at 1.25 µM in experiment [1] (Well no.=6532, low concentration screen) is 99.7%. In addition, the remaining activity at 3.75 µM in experiment [2] (Well no.=6532, high concentration screen) stood at 99.6%.

For the compound `COc1cc2nc(C3CC3)nc(N3CCN(c4ccccc4OC)CC3)c2cc1OC` [ML314], the remaining activity at 1.25 µM in experiment [1] (Well no.=7913, low concentration screen) is 97.1%. In addition, the remaining activity at 3.75 µM in experiment [2] (Well no.=7913, high concentration screen) was found to be 98.2%.

With `O=C(NCCCNC(=O)c1ccc[nH]c1=O)c1cc(-c2ccccc2)on1` [ML327], the remaining activity at 1.25 µM in experiment [1] (Well no.=7164, low concentration screen) worked out at 101%. The remaining activity at 3.75 µM in experiment [2] (Well no.=7164, high concentration screen) came to 93.7%.

Turning to `NS(=O)(=O)c1ccc(NC2=CC(=O)c3ccccc3C2=O)cc1` [ML329], the remaining activity at 1.25 µM in experiment [1] (Well no.=8264, low concentration screen) was 91.6%. Moreover, in experiment [2] (Well no.=8264, high concentration screen), the remaining activity at 3.75 µM stood at 90.3%.

Turning to `COc1cccc(CNc2ccc(S(=O)(=O)Nc3nc4ccccc4s3)cc2)c1O` [ML355], the remaining activity at 1.25 µM in experiment [1] (Well no.=7648, low concentration screen) was determined as 97.9%. The remaining activity at 3.75 µM in experiment [2] (Well no.=7648, high concentration screen) came to 96.7%.

Take `COc1cc(N)c(Cl)cc1C(=O)OCCN1CCCCC1` [ML 10302]: the remaining activity at 1.25 µM in experiment [1] (Well no.=5486, low concentration screen) came out at 98.8%. Moreover, the remaining activity at 3.75 µM in experiment [2] (Well no.=5486, high concentration screen) turned out to be 100%.

For `O=S(=O)(c1cccc2c(I)cccc12)N1CCCNCC1` [ML-7, Hydrochloride], the remaining activity at 1.25 µM in experiment [1] (Well no.=2491, low concentration screen) came to 103%. The remaining activity at 3.75 µM in experiment [2] (Well no.=2491, high concentration screen) amounted to 103%.

Regarding `Cc1ccc(C)c(OCCn2cc(C(=O)O)c3ccccc32)c1` [ML-098], the remaining activity at 1.25 µM in experiment [1] was determined as 98.4%. Moreover, the remaining activity at 3.75 µM in experiment [2] was found to be 97.6%.

With `CCCC(=O)Nc1cccc(NC(=O)c2ccccc2Br)c1` [ML-161], in experiment [1] (Well no.=4845, low concentration screen), the remaining activity at 1.25 µM was found to be 95%. For the same compound, in experiment [2] (Well no.=4845, high concentration screen), the remaining activity at 3.75 µM worked out at 93%.

In the case of `CC(C)C[C@H](NC(=O)CNC(=O)c1cc(Cl)ccc1Cl)B(O)O` [MLN2238], in experiment [1] (Well no.=4808, low concentration screen), the remaining activity at 1.25 µM turned out to be 96.1%. Moreover, in experiment [2] (Well no.=4808, high concentration screen), the remaining activity at 3.75 µM is 97.1%.

On to `O=C(O)c1ccc(Nc2ncc3c(n2)-c2ccc(Cl)cc2C(c2c(F)cccc2F)=NC3)cc1` [MLN8054], for which the remaining activity at 1.25 µM in experiment [1] (Well no.=4659, low concentration screen) was determined as 105%. For the same compound, the remaining activity at 3.75 µM in experiment [2] (Well no.=4659, high concentration screen) was determined as 98.1%.

As to `CC(C)C[C@H](NC(=O)CNC(=O)c1cc(Cl)ccc1Cl)B1OC(=O)C(CC(=O)O)(CC(=O)O)O1` [MLN9708], in experiment [1] (Well no.=4810, low concentration screen), the remaining activity at 1.25 µM was 101%. The remaining activity at 3.75 µM in experiment [2] (Well no.=4810, high concentration screen) was 103%.

`CC[C@H](C)[C@@H]([C@@H](CC(=O)N1CCC[C@H]1[C@H](OC)[C@@H](C)C(=O)N[C@@H](Cc1ccccc1)C(=O)O)OC)N(C)C(=O)[C@@H](NC(=O)[C@@H](NC)C(C)C)C(C)C` [MMAF (Hydrochloride)] (H-[NMeV]V[Dil][Dolaproine]F-OH): the remaining activity at 1.25 µM in experiment [1] (Well no.=7650, low concentration screen) worked out at 89.6%. Moreover, in experiment [2] (Well no.=7650, high concentration screen), the remaining activity at 3.75 µM turned out to be 89.5%.

`CC[C@H](C)[C@@H]([C@@H](CC(=O)N1CCC[C@H]1[C@H](OC)[C@@H](C)C(=O)N[C@@H](Cc1ccccc1)C(=O)OC)OC)N(C)C(=O)[C@@H](NC(=O)[C@@H](NC)C(C)C)C(C)C` [MMAF-OMe] (H-[NMeV]V[Dil][Dolaproine]F-OMe): the remaining activity at 1.25 µM in experiment [1] (Well no.=7600, low concentration screen) worked out at 101%. Further, the remaining activity at 3.75 µM in experiment [2] (Well no.=7600, high concentration screen) was 97.1%.

Take `O/N=C/c1cc[n+](C[n+]2ccc(/C=N/O)cc2)cc1` [MMB-4]: in experiment [1], the remaining activity at 1.25 µM came out at 95.4%. Moreover, the remaining activity at 3.75 µM in experiment [2] was found to be 93.7%.

`S=C(NCc1ccc2c(c1)OCO2)N1CCN(c2ncnc3c2oc2ccccc23)CC1` [MP-470]: the remaining activity at 1.25 µM in experiment [1] (Well no.=2745, low concentration screen) worked out at 103%. In addition, in experiment [2] (Well no.=2745, high concentration screen), the remaining activity at 3.75 µM was found to be 104%.

With `Cc1cccc(C#Cc2ccccc2)n1` [MPEP (Hydrochloride)], the remaining activity at 1.25 µM in experiment [1] (Well no.=8541, low concentration screen) came to 96.2%. Moreover, the remaining activity at 3.75 µM in experiment [2] (Well no.=8541, high concentration screen) is 90.4%.

For `CC(C)N(CCCCOCC(=O)O)c1cnc(-c2ccccc2)c(-c2ccccc2)n1` [MRE-269], the remaining activity at 1.25 µM in experiment [1] (Well no.=7719, low concentration screen) was 107%. Moreover, the remaining activity at 3.75 µM in experiment [2] (Well no.=7719, high concentration screen) worked out at 105%.
